Data as given in patent US20230233569A1 (Revolution Medicines, Inc., priority 2020, published 2023).
Like-named read-outs stand apart in the source and are kept apart here.

Experiments:
Capan-1 (K-Ras G12V) = assay: CellTiter-Glo cell viability assay, 5-day treatment; assay type: cell-based; conditions: Homo sapiens, CAPAN-1, 120 h
Method in brief: (§1)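 Luminescence read-out after 5 days of compound exposure, with plates first brought to room temperature for roughly 30 minutes. Values are percent of averaged DMSO wells, fitted by four-parameter logistic regression.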

NCI-H358 (K-Ras G12C) = assay: as above; assay type: cell-based; conditions: Homo sapiens, NCI-H358, 120 h
Method in brief: as §1

KRAS G13C = KRAS G13C (Homo sapiens, UniProt P01116+P62937, G13C); assay: Disruption of BRAF RBD interaction with Ras (FRET / MOA assay, with Cyclophilin A); assay type: biochemical
Method in brief: (§2)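 TR-FRET: nucleotide-loaded K-Ras mutant or WT with Cyclophilin A and BRAF RBD, compound 10-point 3-fold from 30 μM final, 3 h at 25° C, then anti-His Eu (10 nM) and anti-GST APC (50 nM) for 1.5 h. Decreased FRET ratio versus DMSO gives IC50.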

KRAS G12S = KRAS G12S (Homo sapiens, UniProt P01116+P62937, G12S); assay: as above; assay type: biochemical
Method in brief: as §2

KRAS G12V = KRAS G12V (Homo sapiens, UniProt P01116+P62937, G12V); assay: as above; assay type: biochemical
Method in brief: as §2

KRAS G12D = KRAS G12D (Homo sapiens, UniProt P01116+P62937, G12D); assay: as above; assay type: biochemical
Method in brief: as §2

NRAS G12C = NRAS G12C (Homo sapiens, UniProt P01111+P62937, G12C); assay: as above; assay type: biochemical
KRAS G13D = KRAS G13D (Homo sapiens, UniProt P01116+P62937, G13D); assay: as above; assay type: biochemical
Method in brief: as §2

KRAS WT = KRAS WT (Homo sapiens, UniProt P01116+P62937); assay: as above; assay type: biochemical
Method in brief: as §2

KRAS G12C = KRAS G12C (Homo sapiens, UniProt P01116+P62937, G12C); assay: as above; assay type: biochemical
Method in brief: as §2

[1] = 5-day treatment, read-out: Capan-1 Cell Viability assay data (K-Ras G12V, IC50)
[2] = 5-day treatment, read-out: H358 Cell Viability assay data (K-Ras G12C, IC50)
[3] = read-out: KRAS G13C FRET data, IC50
[4] = read-out: KRAS G12S FRET data, IC50
[5] = KRAS G12V, read-out: KRAS G12V FRET data IC50
[6] = read-out: KRAS G12D FRET data, IC50
[7] = NRAS G12C, read-out: NRAS G12C FRET data IC50
[8] = KRAS G13D, read-out: KRAS G13D FRET data IC50
[9] = KRAS WT, read-out: KRAS WT FRET data IC50
[10] = read-out: KRAS G12C FRET data, IC50
[11] = KRAS G12V FRET data IC50, KRAS G12V
[12] = NRAS G12C FRET data IC50, NRAS G12C
[13] = KRAS G13D FRET data IC50, KRAS G13D
[14] = KRAS WT FRET data IC50, KRAS WT

Sequence of KRAS G13C (P01116 1-169 isoform P01116-2 G13C): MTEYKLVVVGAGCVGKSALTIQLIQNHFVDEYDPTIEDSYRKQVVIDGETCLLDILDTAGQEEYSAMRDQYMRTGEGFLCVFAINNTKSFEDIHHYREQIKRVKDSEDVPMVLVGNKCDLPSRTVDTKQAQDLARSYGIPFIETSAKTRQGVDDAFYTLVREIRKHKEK
Sequence of KRAS G13C (P62937 whole entry): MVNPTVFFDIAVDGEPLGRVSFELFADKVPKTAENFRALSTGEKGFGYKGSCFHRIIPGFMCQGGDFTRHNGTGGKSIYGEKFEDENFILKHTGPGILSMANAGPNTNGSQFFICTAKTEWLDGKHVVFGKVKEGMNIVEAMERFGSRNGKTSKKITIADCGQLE
Sequence of KRAS G13D (P01116 1-169 isoform P01116-2 G13D limits assumed): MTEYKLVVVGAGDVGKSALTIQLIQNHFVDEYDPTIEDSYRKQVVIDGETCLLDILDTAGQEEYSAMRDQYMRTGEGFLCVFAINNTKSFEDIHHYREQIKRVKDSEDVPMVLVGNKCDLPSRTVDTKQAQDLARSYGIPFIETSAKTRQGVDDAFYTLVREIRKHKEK
Sequence of KRAS G13D (P62937 whole entry): as the sequence (P62937 whole entry) above
Sequence of NRAS G12C (P01111 whole entry G12C): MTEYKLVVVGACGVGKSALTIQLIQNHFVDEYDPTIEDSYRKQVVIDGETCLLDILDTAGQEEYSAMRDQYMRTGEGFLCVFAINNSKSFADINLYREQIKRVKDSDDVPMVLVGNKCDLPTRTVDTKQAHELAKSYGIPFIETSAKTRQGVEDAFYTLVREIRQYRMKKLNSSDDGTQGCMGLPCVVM
Sequence of NRAS G12C (P62937 whole entry): as the sequence (P62937 whole entry) above
Sequence of KRAS WT (P01116 1-169 isoform P01116-2 limits assumed): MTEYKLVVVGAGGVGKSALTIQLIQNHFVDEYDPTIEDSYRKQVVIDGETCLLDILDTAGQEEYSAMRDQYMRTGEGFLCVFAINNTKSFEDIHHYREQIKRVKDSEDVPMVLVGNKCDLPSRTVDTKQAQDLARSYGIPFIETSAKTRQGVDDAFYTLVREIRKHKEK
Sequence of KRAS WT (P62937 whole entry): as the sequence (P62937 whole entry) above
Sequence of KRAS G12V (P01116 1-169 isoform P01116-2 G12V limits assumed): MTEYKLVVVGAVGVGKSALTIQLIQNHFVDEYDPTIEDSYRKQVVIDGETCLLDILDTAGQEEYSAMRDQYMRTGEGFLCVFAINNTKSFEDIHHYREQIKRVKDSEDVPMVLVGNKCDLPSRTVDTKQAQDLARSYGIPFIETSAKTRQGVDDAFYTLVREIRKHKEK
Sequence of KRAS G12V (P62937 whole entry): as the sequence (P62937 whole entry) above
Sequence of KRAS G12S (P01116 1-169 isoform P01116-2 G12S limits assumed): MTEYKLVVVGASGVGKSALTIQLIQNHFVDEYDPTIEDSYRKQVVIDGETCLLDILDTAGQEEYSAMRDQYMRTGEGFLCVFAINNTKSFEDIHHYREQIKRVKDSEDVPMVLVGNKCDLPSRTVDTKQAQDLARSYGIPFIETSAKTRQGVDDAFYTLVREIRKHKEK
Sequence of KRAS G12S (P62937 whole entry): as the sequence (P62937 whole entry) above
Sequence of KRAS G12D (P01116 1-169 isoform P01116-2 G12D limits assumed): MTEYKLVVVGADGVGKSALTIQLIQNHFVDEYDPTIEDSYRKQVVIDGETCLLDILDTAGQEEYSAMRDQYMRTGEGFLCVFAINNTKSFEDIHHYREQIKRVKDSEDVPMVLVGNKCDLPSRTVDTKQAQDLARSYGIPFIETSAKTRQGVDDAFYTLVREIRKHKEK
Sequence of KRAS G12D (P62937 whole entry): as the sequence (P62937 whole entry) above
Sequence of KRAS G12C (P01116 1-169 isoform P01116-2 G12C): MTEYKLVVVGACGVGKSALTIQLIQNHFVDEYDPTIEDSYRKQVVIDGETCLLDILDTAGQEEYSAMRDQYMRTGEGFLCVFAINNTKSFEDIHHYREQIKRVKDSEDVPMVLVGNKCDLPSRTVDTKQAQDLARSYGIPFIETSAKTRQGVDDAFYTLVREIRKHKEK
Sequence of KRAS G12C (P62937 whole entry): as the sequence (P62937 whole entry) above

IC50 (NCI-H358 (K-Ras G12C); [2]) [µM] | IC50 (KRAS G13C; [3]) [µM] | IC50 (KRAS G12S; [4]) [µM] | IC50 (KRAS G12V; [5]) [µM] | IC50 (KRAS G12D; [6]) [µM] | IC50 (NRAS G12C; [7]) [µM] | IC50 (KRAS G13D; [8]) [µM] | IC50 (KRAS WT; [9]) [µM] | IC50 (KRAS G12C; [10]) [µM] | IC50 (KRAS G13C; KRAS G13C FRET data, IC50) [µM] | IC50 (KRAS G12S; KRAS G12S FRET data, IC50) [µM] | IC50 (KRAS G12V; [11]) [µM] | IC50 (KRAS G12D; KRAS G12D FRET data, IC50) [µM] | IC50 (NRAS G12C; [12]) [µM] | IC50 (KRAS G13D; [13]) [µM] | IC50 (KRAS WT; [14]) [µM] | IC50 (KRAS G12C; KRAS G12C FRET data, IC50) [µM] | SMILES | IC50 (Capan-1 (K-Ras G12V); [1]) [µM] | IC50 (Capan-1 (K-Ras G12V); read-out: Capan-1 Cell Viability assay data (K-Ras G12V, IC50, uM)) [µM] | IC50 (NCI-H358 (K-Ras G12C); read-out: H358 Cell Viability assay data (K-Ras G12C, IC50, uM), 5-day treatment) [µM]
0.1 to 1 | 0.01 to 0.1 | 0.1 to 1 | 0.1 to 1 | 1 to 10 | 0.1 to 1 | 0.1 to 1 | 0.1 to 1 | 0.1 to 1 | – | – | – | – | – | – | – | – | CCn1c(-c2cnccc2[C@H](C)OC)c2c3cc(ccc31)-c1cc(O)cc(c1)C[C@H](NC(=O)[C@H](C(C)C)N(C)C(C)=O)C(=O)N1CCC[C@H](N1)C(=O)OCC(C)(C)C2 [Example A21] | 0.1 to 1 | – | –
0.1 to 1 | 0.1 to 1 | 0.1 to 1 | 0.1 to 1 | 1 to 10 | 0.1 to 1 | 0.1 to 1 | 0.1 to 1 | 0.1 to 1 | – | – | – | – | – | – | – | – | CCn1c(-c2cnccc2COC)c2c3cc(ccc31)-c1cc(O)cc(c1)C[C@H](NC(=O)[C@H](C(C)C)N(C)C(=O)[C@H]1CCOC1)C(=O)N1CCC[C@H](N1)C(=O)OCC(C)(C)C2 [Example A26] | 0.1 to 1 | – | –
0.1 to 1 | 1 to 10 | 0.1 to 1 | 0.1 to 1 | > 10 | 0.1 to 1 | 1 to 10 | 1 to 10 | 0.1 to 1 | – | – | – | – | – | – | – | – | CCn1c(-c2cnccc2COC)c2c3cc(ccc31)-c1cc(O)cc(c1)C[C@H](NC(=O)[C@H](C(C)C)N(C)C(=O)[C@H]1CCN(C(=O)C(C)C)C1)C(=O)N1CCC[C@H](N1)C(=O)OCC(C)(C)C2 [Example A29] | 1 to 10 | – | –
0.1 to 1 | 0.1 to 1 | 0.1 to 1 | 0.1 to 1 | 1 to 10 | 0.1 to 1 | 1 to 10 | 0.1 to 1 | 0.1 to 1 | – | – | – | – | – | – | – | – | CCn1c(-c2cnccc2COC)c2c3cc(ccc31)-c1cc(O)cc(c1)C[C@H](NC(=O)[C@H](C(C)C)N(C)C(=O)N1CC(OC)C1)C(=O)N1CCC[C@H](N1)C(=O)OCC(C)(C)C2 [Example A30] | 0.1 to 1 | – | –
1 to 10 | – | – | – | – | – | – | – | – | 0.1 to 1 | 0.1 to 1 | 0.1 to 1 | 1 to 10 | 0.1 to 1 | 0.1 to 1 | 0.1 to 1 | 0.1 to 1 | CCn1c(-c2cnccc2COC)c2c3cc(ccc31)-c1cc(O)cc(c1)C[C@H](NC(=O)[C@H](C(C)C)N(C)C(=O)CO)C(=O)N1CCC[C@H](N1)C(=O)OCC(C)(C)C2 [Example A43, (2S)—N-[(8S,14S)-22-ethyl-4-hydroxy-21-[4-(methoxymethyl)pyridin-3-yl]-18,18-dimethyl-9,15-dioxo-16-oxa-10,22,28-triazapentacyclo[18.5.2.1^2,6.1^10,14.0^23,27]nonacosa-1(26),2,4,6(29),20,23(27),24-heptaen-8-yl]-2-(2-hydroxy-N-methylacetamido)-3-methylbutanamide] | 1 to 10 | – | –
> 10 | – | – | – | – | – | – | – | – | 0.1 to 1 | 0.1 to 1 | 1 to 10 | 1 to 10 | 1 to 10 | 0.1 to 1 | 0.1 to 1 | 0.1 to 1 | CCn1c(-c2cnccc2COC)c2c3cc(ccc31)-c1cc(O)cc(c1)C[C@H](NC(=O)[C@H](C(C)C)N(C)C(=O)C1CCN(C)CC1)C(=O)N1CCC[C@H](N1)C(=O)OCC(C)(C)C2 [Example A84] | > 10 | – | –

SMILES | IC50 (NCI-H358 (K-Ras G12C); [2]) [µM] | IC50 (KRAS G13C; [3]) [µM] | IC50 (KRAS G12S; [4]) [µM] | IC50 (KRAS G12V; [5]) [µM] | IC50 (KRAS G12D; [6]) [µM] | IC50 (NRAS G12C; [7]) [µM] | IC50 (KRAS G13D; [8]) [µM] | IC50 (KRAS WT; [9]) [µM] | IC50 (KRAS G12C; [10]) [µM] | IC50 (KRAS G13C; KRAS G13C FRET data, IC50) [µM] | IC50 (KRAS G12S; KRAS G12S FRET data, IC50) [µM] | IC50 (KRAS G12V; [11]) [µM] | IC50 (KRAS G12D; KRAS G12D FRET data, IC50) [µM] | IC50 (NRAS G12C; [12]) [µM] | IC50 (KRAS G13D; [13]) [µM] | IC50 (KRAS WT; [14]) [µM] | IC50 (KRAS G12C; KRAS G12C FRET data, IC50) [µM] | IC50 (Capan-1 (K-Ras G12V); [1]) [µM] | IC50 (Capan-1 (K-Ras G12V); read-out: Capan-1 Cell Viability assay data (K-Ras G12V, IC50, uM)) [µM] | IC50 (NCI-H358 (K-Ras G12C); read-out: H358 Cell Viability assay data (K-Ras G12C, IC50, uM), 5-day treatment) [µM]
CCn1c(-c2cnccc2COC)c2c3cc(ccc31)-c1cc(O)cc(c1)C[C@H](NC(=O)[C@H](C(C)C)N(C)C(=O)[C@@H]1NC[C@@H]3C[C@@H]31)C(=O)N1CCC[C@H](N1)C(=O)OCC(C)(C)C2 [Example A78] | – | – | – | – | – | – | – | – | – | 0.01 to 0.1 | 0.1 to 1 | 0.1 to 1 | 0.1 to 1 | 0.1 to 1 | 0.1 to 1 | 0.1 to 1 | 0.1 to 1 | – | 1 to 10 | 0.1 to 1
